In brackets after ≈: the same amount, converted by molar mass.
Key:
Assay type in all cases: functional
Aspergillus niger [1] = assay: Ratio of MFC to MIC for Aspergillus niger MTCC 8189
Candida albicans [2] = assay: Ratio of MFC to MIC for Candida albicans MTCC 227
Escherichia coli [3] = assay: Ratio of MBC to MIC for Escherichia coli MTCC 1652
Bacillus subtilis [4] = assay: Ratio of MBC to MIC for Bacillus subtilis MTCC 2063
Aspergillus niger [5] = assay: Fungicidal activity against Aspergillus niger MTCC 8189
Staphylococcus aureus [6] = assay: Ratio of MBC to MIC for Staphylococcus aureus MTCC 2901
Candida albicans [7] = assay: Fungicidal activity against Candida albicans MTCC 227
Escherichia coli [8] = assay: Bactericidal activity against Escherichia coli MTCC 1652
Bacillus subtilis [9] = assay: Bactericidal activity against Bacillus subtilis MTCC 2063
Aspergillus niger [10] = assay: Antifungal activity against Aspergillus niger MTCC 8189 after 7 days by tube dilution method
Staphylococcus aureus [11] = assay: Bactericidal activity against Staphylococcus aureus MTCC 2901
Candida albicans [12] = assay: Antifungal activity against Candida albicans MTCC 227 after 48 hr by tube dilution method
Escherichia coli [13] = assay: Antibacterial activity against Escherichia coli MTCC 1652 after 24 hr by tube dilution method
Bacillus subtilis [14] = assay: Antibacterial activity against Bacillus subtilis MTCC 2063 after 24 hr by tube dilution method
Staphylococcus aureus [15] = assay: Antibacterial activity against Staphylococcus aureus MTCC 2901 after 24 hr by tube dilution method

Structure (SMILES) | Ratio (Aspergillus niger [1]) | Ratio (Candida albicans [2]) | Ratio (Escherichia coli [3]) | Ratio (Bacillus subtilis [4]) | MFC (Aspergillus niger [5]) [µM] | Ratio (Staphylococcus aureus [6]) | MFC (Candida albicans [7]) [µM] | MBC (Escherichia coli [8]) [µM] | MBC (Bacillus subtilis [9]) [µM] | -logMIC (Aspergillus niger [10]) | MBC (Staphylococcus aureus [11]) [µM] | -logMIC (Candida albicans [12]) | -logMIC (Escherichia coli [13]) | -logMIC (Bacillus subtilis [14]) | -logMIC (Staphylococcus aureus [15])
O=S(=O)(O)c1cc(O)c(/N=C/c2cccc(Cl)c2)c2ccccc12 | 3 | 3 | 3 | 3 | > 140 | 3 | > 140 | > 140 | > 140 | 1.46 | 140 (≈ 50.7 µg/mL) | 1.46 | 1.46 | 1.46 | 1.16
COc1cccc(/C=N/c2c(O)cc(S(=O)(=O)O)c3ccccc23)c1O | 3 | 3 | 3 | 3 | > 140 | 3 | > 140 | > 140 | > 140 | 1.48 | 140 (≈ 52.3 µg/mL) | 1.48 | 1.48 | 1.48 | 1.17
OC(Cn1cncn1)(Cn1cncn1)c1ccc(F)cc1F [FLUCONAZOLE] | – | – | – | – | 40 (≈ 12.3 µg/mL) | – | – | – | – | 2.64 | – | 2.64 | – | – | –
O=S(=O)(O)c1cc(O)c(/N=C/C=C/c2ccccc2)c2ccccc12 | 3 | 3 | 3 | 3 | 140 (≈ 49.5 µg/mL) | 3 | > 140 | > 140 | > 140 | 1.45 | > 140 | 1.45 | 1.45 | 1.45 | 1.15
O=S(=O)(O)c1cc(O)c(/N=C/c2ccc(Cl)cc2Cl)c2ccccc12 | 3 | 3 | 3 | 3 | > 140 | 3 | > 140 | > 140 | > 140 | 1.5 | > 140 | 1.5 | 1.5 | 1.5 | 1.2
O=S(=O)(O)c1cc(O)c(/N=C/c2ccccc2Cl)c2ccccc12 | 3 | 3 | 3 | 3 | > 140 | 3 | > 140 | > 140 | > 140 | 1.46 | > 140 | 1.46 | 1.46 | 1.46 | 1.16
COc1cccc(/C=N/c2c(O)cc(S(=O)(=O)O)c3ccccc23)c1 | 3 | 3 | 3 | 3 | > 120 | 3 | > 120 | > 120 | > 120 | 1.46 | 120 (≈ 42.9 µg/mL) | 1.46 | 1.46 | 1.46 | 1.16
O=CCCC/C=N/c1c(O)cc(S(=O)(=O)O)c2ccccc12 | 3 | 3 | 3 | 3 | 30 (≈ 9.64 µg/mL) | 3 | > 130 | > 130 | > 130 | 1.41 | > 130 | 1.41 | 1.41 | 1.41 | 1.11
CCn1cc(C(=O)O)c(=O)c2cc(F)c(N3CCNCC3)cc21 [NORFLOXACIN] | – | – | – | – | – | – | – | 19 (≈ 6.07 µg/mL) | 19 (≈ 6.07 µg/mL) | – | 19 (≈ 6.07 µg/mL) | – | 2.61 | 2.61 | 2.61
O=[N+]([O-])c1cccc(/C=N/c2c(O)cc(S(=O)(=O)O)c3ccccc23)c1 | 3 | 3 | 3 | 3 | > 140 | 3 | > 140 | > 140 | > 140 | 1.47 | > 140 | 1.47 | 1.47 | 1.47 | 1.17
O=S(=O)(O)c1cc(O)c(/N=C/c2ccccc2)c2ccccc12 | 3 | 3 | 3 | 3 | > 130 | 3 | > 130 | > 130 | > 130 | 1.42 | > 130 | 1.42 | 1.42 | 1.42 | 1.12
O=Cc1ccc(/C=N/c2c(O)cc(S(=O)(=O)O)c3ccccc23)cc1 | 3 | 3 | 3 | 3 | 140 (≈ 49.8 µg/mL) | 3 | > 140 | > 140 | > 140 | 1.45 | 140 (≈ 49.8 µg/mL) | 1.45 | 1.45 | 1.45 | 1.15
O=S(=O)(O)c1cc(O)c(/N=C/c2ccc(Cl)cc2)c2ccccc12 | 3 | 3 | 3 | 3 | > 140 | 3 | > 140 | > 140 | > 140 | 1.16 | > 140 | 1.16 | 1.16 | 1.16 | 1.16
COc1ccc(/C=N/c2c(O)cc(S(=O)(=O)O)c3ccccc23)cc1 | 3 | 3 | 3 | 3 | 130 (≈ 46.5 µg/mL) | 3 | > 130 | > 130 | > 130 | 1.46 | > 130 | 1.46 | 1.46 | 1.46 | 1.16
COc1ccccc1/C=N/c1c(O)cc(S(=O)(=O)O)c2ccccc12 | 3 | 3 | 3 | 3 | > 130 | 3 | > 130 | > 130 | > 130 | 1.46 | > 130 | 1.46 | 1.46 | 1.46 | 1.16
CCOc1cc(/C=N/c2c(O)cc(S(=O)(=O)O)c3ccccc23)ccc1O | 3 | 3 | 3 | 3 | 30 (≈ 11.6 µg/mL) | 3 | > 130 | > 130 | > 130 | 1.49 | 130 (≈ 50.4 µg/mL) | 1.49 | 1.49 | 1.49 | 1.19
COc1ccc(/C=N/c2c(O)cc(S(=O)(=O)O)c3ccccc23)cc1OC | 3 | 3 | 3 | 3 | > 150 | 3 | > 150 | > 150 | > 150 | 1.49 | > 150 | 1.49 | 1.49 | 1.49 | 1.19
COc1cc(/C=N/c2c(O)cc(S(=O)(=O)O)c3ccccc23)cc(OC)c1OC | 3 | 3 | 3 | 3 | > 150 | 3 | > 150 | > 150 | > 150 | 1.52 | > 150 | 1.52 | 1.52 | 1.52 | 1.22
COc1cc(/C=N/c2c(O)cc(S(=O)(=O)O)c3ccccc23)ccc1O | 3 | 3 | 3 | 3 | 160 (≈ 59.7 µg/mL) | 3 | > 160 | > 160 | > 160 | 1.48 | 160 (≈ 59.7 µg/mL) | 1.48 | 1.48 | 1.48 | 1.17
O=S(=O)(O)c1cc(O)c(/N=C/c2cccc(O)c2)c2ccccc12 | 3 | 3 | 3 | 3 | 130 (≈ 44.6 µg/mL) | 3 | > 130 | > 130 | > 130 | 1.44 | > 130 | 1.44 | 1.44 | 1.44 | 1.14
